According to patent US8507547B2, “Anti-fatigue agents and oral compositions containing andrographolide as active ingredient” (Suntory Holdings Limited, priority 2007, dated 2013):

Experiments:
Balb/c mice = test: Water-immersion and sleep-disturbance test (weight-loaded forced swimming test, swimming time); type: in vivo
Text: The first test is measurement of a swimming time in a water-immersion and sleep-disturbance test. This is described in detail below in Example 1. Mice raised in an environment, such as a water-immersed environment, where they were not allowed to take enough sleep or to take a comfortable posture so that they could take neither physical nor mental rest were weighted and forced to swim, and a length of time that passed until noses of the mice sank under the water for a period of 10 seconds or longer was measured (weight-loaded forced swimming test) to determine their fatigue level.
That is to say, since this animal model is a physical and mental fatigue model as well as an organ fatigue model described below, anti-fatigue action against physical and/or mental fatigue would be confirmed if the swimming time becomes longer as a result of administration of the test substance. Such anti-fatigue action is considered to be involved in reduction in fatigue stress, maintenance of physical energy under fatigue conditions (enhancement of body strength), improvement in endurance, and the like.
Effect of andrographolide on fatigue from water immersion and sleep disturbance was examined using a partially modified method of Tanaka et al. (Neuroscience Let. 352, 159-162, 2003). […] Four out of the five groups were reared as water-immersed groups; the groups were kept in cages in such a manner that each of the cages was filled with tap water at 23° C. with a water depth of 7 mm, instead of a floor covering, so that the mice were immersed in water and deprived of sleep. The mice were immersed in water for two days, andrographolide (Aldrich corp., purity 98%) was forcibly administered orally to the mice with doses of 0.5, 2, 8 mg per kilogram of body weight once daily during the two days (water-immersed and andrographolide-administered group). As a control group, one of the groups was immersed in water for two days, and distilled water was forcibly given orally to the group once daily during the two days (water-immersed control group). The remaining one of the five groups was reared as a normally-reared group; this group was kept in a cage with a normal floor covering, and distilled water was forcibly given orally to the group once daily during the two-day rearing (normally-reared control group). After the two days, each of the mice was provided with a weight corresponding to 8% of its body weight, which weight was attached to its tale, and then the mice were forced to swim in a water tank having a diameter of 18 cm and filled with water having a depth of 30 cm. A length of time that passed until the mice sank under water for a period of 10 seconds or longer (swimming time) was measured (weight-loaded forced swimming test).
The swimming time of the mice of the water-immersed group was shorter than that of the mice of the normally-reared group because of fatigue from the water immersion and sleep disturbance. The effect of andrographolide on the fatigue from the water immersion and sleep disturbance was examined by determining recovery of a reduction in the swimming time of the mice of the water-immersed group after the administration of andrographolide.
In accordance with the procedure described in Example 1, effect on water-immersion and sleep-disturbance fatigue was examined in a case in which andrographolide was administered alone to mice, a case in which alpha-lipoic acid was administered alone to mice, and a case in which a combination of andrographolide and alpha-lipoic acid was administered to mice. Eight-week-old male Balb/c mice were used as a test animal. […] Four out of the five groups served as water-immersed groups, and each of the groups was kept in a cage filled with tap water at 23° C. with a water depth of 7 mm, instead of a floor covering, so that the mice were immersed in water and deprived of sleep. […]

Sprague Dawley rats = test: Measurement of fatigue substance in blood (creatine kinase activity in blood plasma after forced exercise); type: in vivo; conditions: 2 mg per kilogram of body weight orally twice daily, five times in total, before forced exercise stress; FIG. 4
Text: The fourth test is measurement of an amount of fatigue substance. This is described in detail below in Example 4. The test is to determine the effect of administration of the test substance on the amount of fatigue substance at the time when physical or mental stress is applied. Since the fatigue substances change according to the type, intensity, duration, or the like of fatigue that is applied, they are not clearly defined as an indicator, but creatine kinase in blood can be named as one of the candidate substances. Creatine kinase is an enzyme that catalyzes high-energy phosphoryl group transfer from creatine phosphate to ADP, and is considered to serve physiological functions of consuming creatine phosphate to supply ATP at the time of massive energy consumption, such as twitching of skeletal muscles upon instantaneous short-term exercise, in an in vivo energy system. […] It is therefore said that the level of damage on the muscle can be determined by measuring the creatine kinase activity in blood. […]
Muscle fatigue in a living body was determined using creatine kinase levels in blood as a reference index. […] Blood was taken out from a tale vein immediately after the exercise stress, and creatine kinase activity in blood plasma was measured with a biochemistry automatic analyzer (Model 7070, Hitachi High-Technologies Corporation) using an enzyme method. […]

C=C1CC[C@@H]2[C@](C)(CO)[C@H](O)CC[C@@]2(C)[C@@H]1C/C=C1/C(=O)OC[C@H]1O [andrographolide]
reduction in the swimming time (Balb/c mice; 0.25 mg per kilogram of body weight orally once daily during two days of water immersion, FIG. 1(B)): prevented reduction in the swimming time | reduction in the swimming time (Balb/c mice; 200 mg per kilogram of body weight orally once daily during two days of water immersion, FIG. 1(C)): prevented reduction in the swimming time | toxicity to the mice (Balb/c mice; 200 mg per kilogram of body weight orally once daily for two days): no toxicity to the mice was observed | reduction in the swimming time (Balb/c mice; 0.5, 2, 8 mg per kilogram of body weight orally once daily during two days of water immersion, FIG. 1(A)): prevented in a dose-dependent manner | shortening of the swimming time (Balb/c mice; Example 5, FIG. 5, andrographolide 0.25 mg/kg (5a), alpha-lipoic acid 50 mg/kg (5b) or both (5c), orally once daily during two days of water immersion): prevented from shortening | increase rate of the swimming time (Balb/c mice; Example 5, swimming time of normally-reared group minus water-immersed control group = 100%, andrographolide 0.25 mg/kg, alpha-lipoic acid 50 mg/kg, alone or combined): 5% | creatine kinase activity in blood plasma (Sprague Dawley rats): decrease in creatine kinase activity was observed
